Experimental data reported in article PMC12489660, “Multitargeted Caffeic Acid Derivatives Inhibit Cardiac RyR2- and NaV1.5- Channels but Stimulate SERCA2a Pump Activity” (ACS Omega, 2025).
Where “and” joins values, the source holds several entries; their conditions need not be identical. Equal entries are not always repeated.

What was measured:
[1] = target: T1, wild type mouse RyR2 (Mus musculus, UniProt E9Q401); assay: Time-lapse [Ca2+]ER assay in HEK-293 RyR2 R-CEPIA1er cells (RyR2 activity assay); format: cell-based; conditions: 25 μM; for effect on RyR2 activity / [Ca2+]ER (in words): vs control 0.1 v/v% DMSO; for RyR2 activity: percentage from the control sample (100%), mean ± SEM;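 on all read-outs here: ER Ca2+ read as R-CEPIA1er fluorescence ratio F/F0 (F0 mean of initial 90 s, F mean of final 100 s), compared with vehicle-treated control wells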
T1 construct: expressed in transfected cells; host or cells: HEK-293 cells stably expressing WT RyR2 and R-CEPIA1er (gift of Dr. Takashi Murayama), induced with doxycycline

[2] = target: T2, SERCA2a (Mus musculus, UniProt O55143); assay: NADH-coupled ATPase assay on microsomal membrane vesicles from mouse heart ventricles (mouse SER); format: biochemical; conditions: for ATPase activity of SERCA2a in mouse SER / effect on SERCA2a ATPase activity (in words): 10 μM; for ATPase activity of SERCA2a in mouse SER: percentage from the control sample (100%), mean ± SEM; for effect on SERCA2a ATPase activity (in words): mouse SER; for EC50: kinetic rate of NADH–NAD+ conversion, Figure S10: 200 µM free Ca2+
T2 construct: from tissue; host or cells: adult mouse heart ventricles, microsomal membrane vesicles
T2 sequence (O55143 1-998 isoform O55143-2): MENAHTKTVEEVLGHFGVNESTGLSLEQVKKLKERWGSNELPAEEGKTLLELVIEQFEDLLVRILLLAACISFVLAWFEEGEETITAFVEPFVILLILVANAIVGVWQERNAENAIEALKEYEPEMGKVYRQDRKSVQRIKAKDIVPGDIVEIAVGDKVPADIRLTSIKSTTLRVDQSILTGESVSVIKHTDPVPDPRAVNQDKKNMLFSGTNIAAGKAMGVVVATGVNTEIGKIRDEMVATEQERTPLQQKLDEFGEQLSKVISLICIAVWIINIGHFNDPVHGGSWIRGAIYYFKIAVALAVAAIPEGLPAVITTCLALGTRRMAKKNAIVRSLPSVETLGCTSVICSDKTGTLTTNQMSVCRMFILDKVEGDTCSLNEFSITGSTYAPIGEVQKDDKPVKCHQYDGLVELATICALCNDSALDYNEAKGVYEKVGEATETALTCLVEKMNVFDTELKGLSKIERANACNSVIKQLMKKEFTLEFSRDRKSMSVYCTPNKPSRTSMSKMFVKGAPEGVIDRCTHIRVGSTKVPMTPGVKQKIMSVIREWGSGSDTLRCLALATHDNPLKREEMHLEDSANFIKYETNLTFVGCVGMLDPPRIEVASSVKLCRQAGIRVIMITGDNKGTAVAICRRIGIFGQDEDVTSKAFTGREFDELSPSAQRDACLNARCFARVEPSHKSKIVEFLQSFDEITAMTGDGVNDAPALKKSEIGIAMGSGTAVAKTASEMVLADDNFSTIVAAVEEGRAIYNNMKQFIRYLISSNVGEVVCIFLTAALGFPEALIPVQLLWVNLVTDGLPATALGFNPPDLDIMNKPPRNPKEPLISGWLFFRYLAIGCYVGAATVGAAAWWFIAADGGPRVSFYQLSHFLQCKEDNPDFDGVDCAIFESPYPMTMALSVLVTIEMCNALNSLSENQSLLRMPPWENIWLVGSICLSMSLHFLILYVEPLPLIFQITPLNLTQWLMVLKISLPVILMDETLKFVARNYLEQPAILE
Protocol: To this end, we tracked the rate of nicotinamide adenine dinucleotide (NADH) oxidation linked to ATP hydrolysis by observing changes in NADH fluorescence over time. This was done after addition of ATP to solutions containing microsomal membranes enriched with SER vesicles isolated from adult mouse heart ventricles (mouse SER). The NADH fluorescence decrease was recorded on a FlexStation 3 Multimode Microplate Reader. […] We detected the highest increase in ATPase activity (up to 118%), when the vesicles were treated with borate complex 11–13 (Table ). We tested compounds 11–13 in the NADH assay buffer to see whether these compounds could contribute to the rate of NADH fluorescence reduction (Figures S7–S9). No significant deviations were found in the rate of NADH consumption compared to the control sample (0.1 v/v% DMSO).
Isolation of Microsomal Membrane Vesicles from mouse hearts was done according to procedure described earlier. All animal procedures were performed in accordance with national and institutional regulations.
Mouse ventricular microsomes (4–5 μg of total protein) were diluted in 100 μL of the assay buffer used for measurement of SERCA activity (described below) and incubated at room temperature for 10 min prior to the experiments. The measurements of SERCA2 activity were made at 25 °C by using a NADH -coupled ATPase assay as described in Radnai et al. with slight modifications. Briefly, the assay buffer contained 60 mM MOPS, 120 mM KCl, 6 mM MgCl2, 1 mM EGTA, 5 mM NaN3, 0.5 mM phosphoenolpyruvate and 0.67 mM CaCl2, pH 7.0. Before the reaction was started by the injection of 10 μL ATP (resulting in 2 mM final concentration in the well), 5 units/mL of both lactate dehydrogenase and pyruvate kinase, 0.5 mM NADH, and 1 μM Ca^2+ ionophore A-23187 (Sigma, C-7522) were added to the diluted sample with or without the tested compound (volume −150 μL). […] The NADH fluorescence decrease was recorded each 2 s for 5 min course on a FlexStation 3 Multi-Mode Microplate Reader in 96-well glass bottom plates (MatTek Corporation; Cat. No. PBK96G-1.5-5-F). Fluorescence was evoked by 380 nm excitation wavelength and collected in a bottom-read mode at 425 nm, cutoff–470 nm, 4 flashes per read. ATP was injected at 60 s, speed–125 μL/s, pipet height–140 μL. The data were analyzed with computer software GraphPad Prism version 8.3.1 (GraphPad Software, Inc.). The difference in signal decrease with and without microsomes was taken as an indicator for the additional ATPase activity performed by SERCA2. The obtained values for maximal SERCA2 activity were normalized for total protein concentration. Maximal SERCA2 activity values are reported as percentages of control (0.1% DMSO) values. Microsomal samples that were kept on ice until usage and set to 100%.

[3] = target: human NaV1.5 (Homo sapiens, UniProt Q14524); assay: FLIPR membrane potential assay on CHO NaV1.5 Duo cells (veratridine-induced); format: cell-based; conditions: for NaV1.5 activity in CHO cells: 10 μM, percentage from the control sample (100%), mean ± SEM; for effect on NaV1.5 activity (in words): concentration range 0.1 to 100 μM
Chain of human NaV1.5 (Q14524 1-460 limits assumed): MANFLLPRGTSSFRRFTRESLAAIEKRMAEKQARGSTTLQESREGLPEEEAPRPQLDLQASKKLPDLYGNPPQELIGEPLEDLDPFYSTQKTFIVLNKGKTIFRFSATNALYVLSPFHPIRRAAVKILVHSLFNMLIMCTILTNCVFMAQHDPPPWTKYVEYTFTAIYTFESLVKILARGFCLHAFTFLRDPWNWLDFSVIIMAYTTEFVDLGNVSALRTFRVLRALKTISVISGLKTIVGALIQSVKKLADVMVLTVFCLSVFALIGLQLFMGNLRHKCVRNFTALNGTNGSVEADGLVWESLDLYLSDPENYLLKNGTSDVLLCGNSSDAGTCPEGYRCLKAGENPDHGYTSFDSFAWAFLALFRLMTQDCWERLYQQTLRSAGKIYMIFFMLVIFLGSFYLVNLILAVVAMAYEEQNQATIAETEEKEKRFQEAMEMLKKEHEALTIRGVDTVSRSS
Chain of human NaV1.5 (Q14524 661-1004 limits assumed): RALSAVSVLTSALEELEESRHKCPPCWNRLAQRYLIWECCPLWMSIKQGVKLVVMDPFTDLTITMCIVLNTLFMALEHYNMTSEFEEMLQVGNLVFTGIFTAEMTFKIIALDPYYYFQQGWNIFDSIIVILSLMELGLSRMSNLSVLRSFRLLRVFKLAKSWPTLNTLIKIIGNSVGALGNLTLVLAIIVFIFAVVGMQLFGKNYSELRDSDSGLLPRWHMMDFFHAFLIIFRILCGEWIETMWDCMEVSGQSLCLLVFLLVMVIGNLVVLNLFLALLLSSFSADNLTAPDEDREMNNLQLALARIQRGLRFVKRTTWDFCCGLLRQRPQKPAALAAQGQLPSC
Chain of human NaV1.5 (Q14524 1142-2016 limits assumed): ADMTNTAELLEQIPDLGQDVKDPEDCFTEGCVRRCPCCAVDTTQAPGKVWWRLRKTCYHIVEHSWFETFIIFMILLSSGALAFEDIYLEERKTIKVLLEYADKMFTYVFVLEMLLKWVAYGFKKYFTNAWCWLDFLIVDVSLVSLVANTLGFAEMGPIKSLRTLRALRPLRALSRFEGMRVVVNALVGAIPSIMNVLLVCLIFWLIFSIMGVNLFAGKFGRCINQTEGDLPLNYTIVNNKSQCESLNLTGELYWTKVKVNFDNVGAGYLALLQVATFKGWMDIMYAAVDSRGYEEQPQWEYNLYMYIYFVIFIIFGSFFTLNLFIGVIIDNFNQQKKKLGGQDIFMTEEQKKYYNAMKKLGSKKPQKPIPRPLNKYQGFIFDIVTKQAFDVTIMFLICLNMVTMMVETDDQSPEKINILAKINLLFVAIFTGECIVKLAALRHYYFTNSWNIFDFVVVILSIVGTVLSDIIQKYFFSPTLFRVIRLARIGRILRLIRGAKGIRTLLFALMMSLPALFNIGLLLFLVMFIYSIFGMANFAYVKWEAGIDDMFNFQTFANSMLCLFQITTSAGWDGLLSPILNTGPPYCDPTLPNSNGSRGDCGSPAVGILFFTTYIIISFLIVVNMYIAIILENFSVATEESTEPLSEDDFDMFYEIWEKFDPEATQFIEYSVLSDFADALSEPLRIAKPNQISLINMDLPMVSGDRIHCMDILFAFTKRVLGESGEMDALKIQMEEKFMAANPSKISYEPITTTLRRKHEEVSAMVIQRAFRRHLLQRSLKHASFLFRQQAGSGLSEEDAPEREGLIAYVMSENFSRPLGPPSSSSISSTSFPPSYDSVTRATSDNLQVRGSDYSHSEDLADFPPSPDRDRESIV

[4] = target: SERCA2 (Mus musculus, UniProt O55143); assay: Caffeine induced calcium release assay on live HL-1 cardiomyocytes; format: cell-based; conditions: for activation of SERCA2 in HL-1: 10 μM, percentage from the control sample (100%), mean ± SEM; for EC50: 2 h preincubation, 10 mM caffeine, read-out: activation of SERCA2 in HL-1, EC50 (converted);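 on all read-outs here: Read-out: caffeine-evoked peak minus basal fluorescence (ΔF Caff) of cytoplasmic FLIPR Calcium 6 dye, recorded for 1 min, compared with Tyrode's solution plus 0.1 v/v% DMSO as control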
Chain of SERCA2 (O55143 1-994 limits assumed): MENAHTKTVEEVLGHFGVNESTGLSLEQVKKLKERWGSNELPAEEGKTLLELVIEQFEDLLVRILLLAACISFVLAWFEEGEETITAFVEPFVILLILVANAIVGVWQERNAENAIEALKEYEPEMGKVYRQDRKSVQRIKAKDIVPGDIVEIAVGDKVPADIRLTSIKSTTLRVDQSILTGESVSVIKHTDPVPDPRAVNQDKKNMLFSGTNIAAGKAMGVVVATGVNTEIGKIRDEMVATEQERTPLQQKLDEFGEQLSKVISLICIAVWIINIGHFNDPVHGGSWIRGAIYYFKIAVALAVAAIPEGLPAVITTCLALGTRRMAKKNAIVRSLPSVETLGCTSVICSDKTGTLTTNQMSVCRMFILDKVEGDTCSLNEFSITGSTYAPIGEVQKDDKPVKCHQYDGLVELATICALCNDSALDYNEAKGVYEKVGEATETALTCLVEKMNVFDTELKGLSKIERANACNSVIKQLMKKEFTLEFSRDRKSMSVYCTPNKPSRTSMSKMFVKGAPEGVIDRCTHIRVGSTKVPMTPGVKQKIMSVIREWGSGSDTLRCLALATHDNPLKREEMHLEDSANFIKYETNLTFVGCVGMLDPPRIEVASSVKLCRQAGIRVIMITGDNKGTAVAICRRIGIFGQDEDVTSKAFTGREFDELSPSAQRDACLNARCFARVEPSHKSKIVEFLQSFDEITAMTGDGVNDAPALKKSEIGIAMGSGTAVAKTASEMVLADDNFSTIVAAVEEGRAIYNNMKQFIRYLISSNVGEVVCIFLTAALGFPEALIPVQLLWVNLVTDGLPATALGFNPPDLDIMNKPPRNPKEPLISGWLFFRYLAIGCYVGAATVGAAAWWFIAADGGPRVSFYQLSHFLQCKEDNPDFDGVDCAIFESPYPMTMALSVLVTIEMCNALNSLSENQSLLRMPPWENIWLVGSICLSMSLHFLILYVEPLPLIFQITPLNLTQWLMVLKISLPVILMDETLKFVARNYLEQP

[5] = PermeaPad membrane permeability; format: in vitro ADME; conditions: not told, room temperature, class low/medium in parentheses, read-out: P e (permeability rate)
From the text: We determined permeability rates (P e ), which are a measure of how fast a compound can cross a membrane, using cell-free transport models (PermeaPad, innoME GmbH) The CA derivatives have medium to low permeability rates in the range 1.0–24.0 nm/s (Table ). Similar to S36, despite poor permeability, compounds 2–4, 8, and 9 acted on live RyR2-HEK-293 R-CEPIA1er cells inhibiting RyR2. […] Since PermeaPad is an artificial model that primarily reflects passive diffusion, it is likely that additional mechanisms contribute to the crossing of cell membranes by these compounds.
Membrane permeability was assessed using PermeaPad Plate according to the manufacturing procedure (innoME GmbH, Espelkamp, Germany). Briefly, 200 μL (V A) water was added into acceptor plate. 200 μL (V D) of 100–500 μM test compound in water was added directly to the well membranes of the donor plate. The donor plate contains a biomimetic membrane for simulating passive mass transfer through different barriers in the body. Then the donor plate was placed into the acceptor plate wells and incubated at room temperature for 24 h in dark. To determine peak absorbance of test compounds, absorbance spectra of acceptor solutions and initial solutions for each test compound were read out. The Permeability Rate (P e) was calculated using the formula:
P e = C × −ln (1 – ODA/ODB) cm/s, where OD A is the absorbance of acceptor solution, OD B is the absorbance of the standard solution; if the compound is able to permeabilize the membrane and fully reach equilibrium, 250 μM will be the final concentration of solution in the donor and acceptor wells. The coefficient C was calculated using the formula: C=VD×VA/(VD+VA)×Area×time where V A–acceptor volume (cm^3), V D–donor volume (cm^3), membrane area 0.24 cm^2, time is 86,400 s.

## O=C1CN(/N=C/c2ccc(-c3ccc([N+](=O)[O-])cc3)o2)C(O)=N1 [dantrolene, reference compound]
[1]
  effect on RyR2 activity / [Ca2+]ER (in words): increase in R-CEPIA1er fluorescence

## COc1ccc2c(c1)CN(CCCCCCNC(=O)/C=C/c1ccc(O)c(O)c1)CCS2 [Compound 6]
[1]
  effect on RyR2 activity / [Ca2+]ER (in words): did not affect the RyR2 activity
  RyR2 activity: 99.4 ± 0.4%
[2]
  ATPase activity of SERCA2a in mouse SER: 112.3 ± 3.5%
[3]
  NaV1.5 activity in CHO cells: 88.8 ± 0.9%
[4]
  activation of SERCA2 in HL-1: 235.4 ± 8.5%
[4]; HL-1 cells
  EC50: 3.1 µM
[5]
  Papp at 24 h: 0.9 ×10⁻⁶ cm/s

## COc1ccc2c(c1)CN(CCCCCCCCNC/C=C/c1ccc(O)c(O)c1)CCO2 [Compound 10]
[1]
  effect on RyR2 activity / [Ca2+]ER (in words): significantly increased [Ca^2+]ER
  RyR2 activity: 102.1 ± 0.4%
[2]
  ATPase activity of SERCA2a in mouse SER: 112.3 ± 4.6%
[3]
  NaV1.5 activity in CHO cells: 103.0 ± 1.4%
  effect on NaV1.5 activity (in words): no effect on NaV1.5
[4]
  activation of SERCA2 in HL-1: 126.4 ± 13.0%
[4]; HL-1 cells
  EC50: 47.6 µM
[5]
  Papp at 24 h: 0.2 ×10⁻⁶ cm/s

## Cc1ccc2cccc(NC(=O)c3ccc(OC(C)C)cc3)c2n1 [CDN1163, reference compound]
[3]; 100 μM
  effect on NaV1.5 (in words): comparable to the maximal effect of tetracaine
[3]
  effect on NaV1.5 activity (in words): blocked NaV1.5
[4]; HL-1 cells
  EC50: 21 µM and 21.2 µM

## COc1ccc(SCCCNC(=O)/C=C/c2ccc(O)c(O)c2)cc1 [Compound 2, (E)-3-(3,4-Dihydroxyphenyl)-N-(3-((4-methoxyphenyl)thio)propyl)acrylamide]
[1]
  effect on RyR2 activity / [Ca2+]ER (in words): RyR2 activators
  RyR2 activity: 96.5 ± 0.4%
[2]
  effect on SERCA2a ATPase activity (in words): significant activation of SERCA2a ATPase
  ATPase activity of SERCA2a in mouse SER: 109.2 ± 3.6%
[3]
  NaV1.5 activity in CHO cells: 89.7 ± 1.1%
[4]
  activation of SERCA2 in HL-1: 161.5 ± 9.5%
[4]; HL-1 cells
  EC50: 11 µM
[5]
  Papp at 24 h: < 1 ×10⁻⁶ cm/s

## COc1ccc2c(c1)CN(C/C=C/C(=O)NNC(=O)/C=C/c1ccc(O)c(O)c1)CCS2 [Compound 3, (E)-N′-((E)-3-(3,4-Dihydroxyphenyl)acryloyl)-4-(7-methoxy-2,3-dihydrobenzo[1,4-f]thiazepin-4(5H)-yl)but-2-enehydrazide]
[1]
  effect on RyR2 activity / [Ca2+]ER (in words): significantly increased [Ca^2+]ER
  RyR2 activity: 101.7 ± 0.3%
[2]
  effect on SERCA2a ATPase activity (in words): did not evoke a significant increase in ATPase activity
  ATPase activity of SERCA2a in mouse SER: 100.6 ± 2.5%
[3]
  NaV1.5 activity in CHO cells: 94.8 ± 2.1%
[4]
  activation of SERCA2 in HL-1: 135.4 ± 3.8%
[4]; HL-1 cells
  EC50: > 3 µM
[5]
  Papp at 24 h: 3.4 ×10⁻⁶ cm/s

## COc1ccc2c(c1)CN(CCCCCCNC(=O)/C=C/c1ccc(O)c(O)c1)CCO2 [Compound 8]
[1]
  effect on RyR2 activity / [Ca2+]ER (in words): RyR2 activators
  RyR2 activity: 95.0 ± 1.2%
[2]
  ATPase activity of SERCA2a in mouse SER: 110.5 ± 3.5%
[3]
  NaV1.5 activity in CHO cells: 96.6 ± 3.6%
[4]
  activation of SERCA2 in HL-1: 158.1 ± 2.4%
[4]; HL-1 cells
  EC50: 7.6 µM
[5]
  Papp at 24 h: 1.1 ×10⁻⁶ cm/s

## COc1ccc2c(c1)CN(CCCCNC(=O)C(=O)NCCCCCCNC(=O)/C=C/c1ccc(O)c(O)c1)CCS2 [Compound 4]
[1]
  effect on RyR2 activity / [Ca2+]ER (in words): significantly increased [Ca^2+]ER
  RyR2 activity: 102.2 ± 0.6%
[2]
  effect on SERCA2a ATPase activity (in words): significant activation of SERCA2a ATPase
  ATPase activity of SERCA2a in mouse SER: 110.8 ± 4.5%
[3]
  NaV1.5 activity in CHO cells: 108.0 ± 1.6%
[3]; 100 μM
  effect on NaV1.5 (in words): small but significant activating effect
[4]
  activation of SERCA2 in HL-1: 140.3 ± 6.4%
[4]; HL-1 cells
  EC50: 1.4 µM
[5]
  Papp at 24 h: 2.7 ×10⁻⁶ cm/s

## COc1ccc2c(c1)CN(CCCC[NH+]([BH2-]C#N)C/C=C/c1ccc(O)c(O)c1)CCS2 (stereo not shown) [Compound 11]
[1]
  effect on RyR2 activity / [Ca2+]ER (in words): did not affect the RyR2 activity
  RyR2 activity: 100.8 ± 0.7%
[2]
  ATPase activity of SERCA2a in mouse SER: 115.7 ± 4.0%
  EC50: 0.03 µM and 0.0296 µM
[3]
  NaV1.5 activity in CHO cells: 83.8 ± 1.7%
[4]
  activation of SERCA2 in HL-1: 267.3 ± 11.7%
[4]; HL-1 cardiomyocytes
  effect in caffeine-induced Ca2+ release assay relative to CDN1163: 2.5 fold
[4]; HL-1 cells
  EC50: 13.6 µM
[4]; HL-1 cells, maximal effect of the dose-response
  increase in the signaling response to caffeine stimulation compared to the control sample: up to 450%
[5]
  Papp at 24 h: 2.6 ×10⁻⁶ cm/s

## CCCCNc1ccc(C(=O)OCCN(C)C)cc1 [tetracaine, reference compound]
[3]; positive control
  concentration of maximal inhibition: 100 µM

## O=C(O)C=Cc1ccc(O)c(O)c1 [CA, 3-(3,4-dihydroxyphenyl)-2-propenoic acid, reference compound]
[1]
  effect on RyR2 activity / [Ca2+]ER (in words): did not affect the RyR2 activity
  RyR2 activity: 100.9 ± 0.8%
[2]
  effect on SERCA2a ATPase activity (in words): accelerated consumption of NADH
  ATPase activity of SERCA2a in mouse SER: 108.5 ± 2.5%
[3]
  NaV1.5 activity in CHO cells: 91.8 ± 2.4%
  effect on NaV1.5 activity (in words): no effect on NaV1.5 activity

## COc1ccc2c(c1)CN(CCCCCCCCNC(=O)/C=C/c1ccc(O)c(O)c1)CCS2 [Compound 7]
[1]
  RyR2 activity: 100.1 ± 1.7%
[2]
  ATPase activity of SERCA2a in mouse SER: 109.8 ± 2.9%
[3]; 1 μM
  effect on NaV1.5 (in words): activating effect
[3]
  NaV1.5 activity in CHO cells: 87.4 ± 1.1%
  effect on NaV1.5 activity (in words): bell-shaped behavior
[3]; 10–100 μM
  effect on NaV1.5 (in words): inhibitory effect
[4]
  activation of SERCA2 in HL-1: 175.3 ± 7.2%
[4]; HL-1 cells
  EC50: 1.9 µM
[5]
  Papp at 24 h: 0.9 ×10⁻⁶ cm/s

## COc1ccc2c(c1)CN(CCCCCC[NH+]([BH2-]C#N)C/C=C/c1ccc(O)c(O)c1)CCS2 (stereo not shown) [Compound 12]
[1]
  effect on RyR2 activity / [Ca2+]ER (in words): significantly increased [Ca^2+]ER
  RyR2 activity: 103.9 ± 0.8%
[2]
  ATPase activity of SERCA2a in mouse SER: 118.2 ± 2.5%
  EC50: 0.0023 µM
[3]
  NaV1.5 activity in CHO cells: 86.2 ± 2.6%
[4]
  activation of SERCA2 in HL-1: 277.8 ± 12.7%
[4]; HL-1 cells
  EC50: 1.1 µM
[5]
  Papp at 24 h: 0.4 ×10⁻⁶ cm/s
